What was measured:
[1] = molecular target: T1, human VNUT (Homo sapiens, UniProt Q9BYT1); assay: ATP loading into reconstituted liposomes containing human VNUT; format: biochemical; conditions: pyruvic acid at a 50-fold higher concentration (5 mM)
T1 construct: made in house; host or cells: HIGH FIVE insect cells (baculovirus)
T1 sequence (Q9BYT1 1-430 isoform Q9BYT1-2): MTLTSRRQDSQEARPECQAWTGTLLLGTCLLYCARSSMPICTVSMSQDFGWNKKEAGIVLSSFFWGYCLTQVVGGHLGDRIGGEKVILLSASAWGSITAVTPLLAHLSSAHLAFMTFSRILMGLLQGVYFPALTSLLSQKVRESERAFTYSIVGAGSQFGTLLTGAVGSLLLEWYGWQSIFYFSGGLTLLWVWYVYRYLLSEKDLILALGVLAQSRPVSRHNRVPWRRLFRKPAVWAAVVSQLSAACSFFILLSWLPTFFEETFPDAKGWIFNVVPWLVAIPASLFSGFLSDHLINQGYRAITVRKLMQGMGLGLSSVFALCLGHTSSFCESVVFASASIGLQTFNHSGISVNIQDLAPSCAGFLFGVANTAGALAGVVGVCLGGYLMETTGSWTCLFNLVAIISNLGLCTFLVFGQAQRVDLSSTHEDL
Method: Human VNUT was prepared according to Reference C (Keisuke Sawada et al., 2008, Identification of a vesicular nucleotide transporter, Proc Natl Acad Sci USA, vol. 105, no. 15, 5683-5686). Insect cells (HIGH FIVE cells) were infected at MOI = 1 with a baculovirus in which a human VNUT expression system was incorporated. HIGH FIVE cells expressing VNUT (1 × 10^8 cells) were collected with a cell scraper, and suspended at about 8 mg/ml in 20 mM Tris-HCl (pH 8.0), 0.1 M potassium acetate, 10% glycerol, 10 µg/ml pepstatin A, and 10 µg/ml leupeptin, followed by homogenization of the cells using an ultrasonic generator (manufactured by Sonics Materials). […]
VNUT (protein, 20 µg) prepared by the above method was mixed with liposomes (lipid weight, 200 µg), and left to stand at -80°C for 30 minutes. […] A major band was detected at a position of about 68 kDa. The proteins after the electrophoresis with the ePAGEL E-T520 2-10% gradient gel (manufactured by Atto) were electrotransferred to a nitrocellulose sheet, and analyzed by Western blotting using an anti-human SLC17A9 (VNUT) rabbit polyclonal antibody (manufactured by Proteintech).
The ATP transport activity of the VNUT-containing reconstituted liposomes prepared by the above method was measured. […]

[2] = system: ATP transport activity in isolated chromaffin granule membranes; assay: ATP transport (3H-ATP uptake) in chromaffin granule membrane vesicles; format: biochemical, bovine
Method: Chromaffin granule membranes were prepared from adrenal glands collected from slaughtered cattle according to Reference A (Nathan Nelson et al., 1988, Chromaffin Granule Proton Pump, Methods in Enzymology, 157, 619-633). Chromaffin granule membranes prepared by sucrose density gradient centrifugation were suspended in 2 ml of SME buffer (20 mM MOPS-tris (pH 7.0), 0.3 M sucrose, 5 mM EDTA, 10 µg/ml leupeptin, and 10 µg/ml pepstatin) + 25% glycerol, and the resulting suspension was aliquoted and stored at -80°C. Under these conditions, the ATP transport activity, the V-ATPase activity, and the catecholamine transport activity remain fully active for at least one year.
An ATP transport inhibition experiment for the chromaffin granule membrane was carried out according to Reference B (Yoshinori Moriyama et al., 2022, Is the vesicular nucleotide transporter a molecular target of eicosapentaenoic acid?, Frontiers in Pharmacology, 103389). About 20 µg of chromaffin granule membranes were added to 0.5 ml of measurement buffer (20 mM MOPS-tris (pH 7.0), 0.3 M sucrose, 5 mM potassium chloride, 5 mM magnesium acetate, 5 mM creatine phosphate, 10 units of creatine kinase, and 1 mM ^3[H]-ATP [15 KBq/assay]), followed by incubation at 30°C for 1 hour. Through a Millipore MCE membrane filter with a pore size 0.45 µm, 0.2 ml of the reaction liquid was filtered by suction. Thereafter, the filter was washed with 10 ml of 20 mM MOPS-tris (pH 7.0), 0.3 M sucrose, 5 mM potassium chloride, and 5 mM magnesium acetate, and dissolved in 10 ml of Clear-sol II (manufactured by Nacalai Tesque, Inc.). The radioactivity was then measured using a liquid scintillation counter (N = 3).
The reaction was initiated by adding 50 mM ^3[H]-ATP to a final concentration of 1 mM. The 50 mM ^3[H]-ATP was prepared by mixing an ATP-tris solution (manufactured by Sigma-Aldrich) with [2,8-^3H] adenosine triphosphate tetrasodium salt (26.0 Ci/mmol) (manufactured by New England Nuclear). PEP was used as a test reagent, and pyruvic acid was used as a negative control. Five minutes before the addition of ATP, PEP or pyruvic acid, as a solution in 20 mM MOPS-tris (pH 7.0), 0.3 M sucrose, 5 mM potassium chloride, and 5 mM magnesium acetate, was added to the measurement liquid to a final PEP concentration of 0.02, 0.05, 0.1, 0.2, 0.4, or 1 mM, or to a final pyruvic acid concentration of 0.5 or 1 mM.
Chromaffin granule membrane vesicles were prepared in the same manner as in Example 5, and uptake of radiolabeled ATP into the vesicles was measured. Transport activity of catecholamine (dopamine) and ATP-dependent proton transport by V-ATPase were also measured in the same manner as in Example 5.

## CC(=O)C(=O)O [pyruvic acid]
[1]
  ATP loading into liposomes: did not inhibit ATP loading into liposomes
[2]; concentration not given
  inhibitory activity on ATP transport: no inhibitory activity
[2]; concentrations of up to 1 mM
  inhibition of ATP transport: did not inhibit ATP transport
